In patent US8293781B2, “Indole derivatives having cPLA2 inhibiting activity and applications and production methods of the same” (Daiichi Sankyo Company, Limited, priority 2007, dated 2012) one finds IC50 data, which are given here for 32 compounds.

Counter-ions that a name gives are not always drawn.

For the first experiment, the target named is T1, cPLA2 crudely purified from the cytoplasm fraction of U937 (Homo sapiens, UniProt P47712).
T1 construct: cPLA2 crudely purified from the cytoplasm fraction of U937; endogenous in cells; host or cells: U937 cells (cytoplasm fraction, crude purification)
T1 sequence (P47712 1-749): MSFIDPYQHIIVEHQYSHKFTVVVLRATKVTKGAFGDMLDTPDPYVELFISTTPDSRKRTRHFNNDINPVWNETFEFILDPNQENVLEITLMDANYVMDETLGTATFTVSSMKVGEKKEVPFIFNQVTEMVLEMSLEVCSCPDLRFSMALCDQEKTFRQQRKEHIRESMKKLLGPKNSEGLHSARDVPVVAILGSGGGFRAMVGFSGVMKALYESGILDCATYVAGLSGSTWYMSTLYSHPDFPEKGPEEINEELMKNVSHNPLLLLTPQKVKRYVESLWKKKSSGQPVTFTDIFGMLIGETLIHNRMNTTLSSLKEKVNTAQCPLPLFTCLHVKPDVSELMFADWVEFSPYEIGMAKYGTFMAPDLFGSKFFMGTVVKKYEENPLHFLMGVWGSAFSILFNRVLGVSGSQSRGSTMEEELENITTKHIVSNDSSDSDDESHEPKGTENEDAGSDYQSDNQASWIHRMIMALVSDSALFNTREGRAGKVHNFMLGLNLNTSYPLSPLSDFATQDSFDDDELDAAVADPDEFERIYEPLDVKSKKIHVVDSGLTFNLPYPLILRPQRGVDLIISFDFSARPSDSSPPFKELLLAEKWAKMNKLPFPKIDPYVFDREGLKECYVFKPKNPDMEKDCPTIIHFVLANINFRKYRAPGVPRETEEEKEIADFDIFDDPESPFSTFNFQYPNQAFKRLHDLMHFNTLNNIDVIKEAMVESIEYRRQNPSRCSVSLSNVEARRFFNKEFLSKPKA
The experiment in a line: Measurement of cPLA2 inhibitory activity (release of [14C]-arachidonic acid from phosphatidyl choline liposome).
Conditions: not given
The class given is biochemical. An outline of the steps:
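The read-out is radioactivity from extracted [14C]-arachidonic acid, freed over 60 min at 37° C from liposomes of 14C-arachidonyl phosphatidylcholine (10 μM PC in the added solution). Buffer was 50 mM HEPES pH 7.5 with Ca2+, DTT, NaCl and BSA. IC50 was derived from inhibition relative to enzyme control minus no-enzyme control.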
Take `O=C(O)/C=C/c1ccc2c(c1)c(C(=O)c1ccc3ccccc3c1)cn2-c1ccccc1` [Example 53, (2E)-3-[3-(2-naphthoyl)-1-phenyl-1H-indol-5-yl]-2-propenoic acid]: the IC50 amounted to 5520 nM.
On the same count and under the same terms, the value for `O=C(O)CCc1ccc2c(c1)c(C(=O)Cc1ccccc1)cn2-c1ccccc1` [Example 12, 3-[1-phenyl-3-(phenylacetyl)-1H-indol-5-yl]propanoic acid] was 261 nM.

The experiment is the same for the next values; noted with them: cPLA2 from U937 cytoplasm fraction, [14C]arachidonyl-phosphatidyl choline liposome, 37° C., 60 minutes; read-out: cPLA2 inhibitory activity, 50% inhibiting concentration IC50.
As for `O=C(O)CCc1ccc2c(c1)c(CCc1ccccn1)cn2-c1ccc(OC(F)F)cc1` [Example 277, 3-{1-[4-(difluoromethoxy)phenyl]-3-(2-pyridin-2-ylethyl)-1H-indol-5-yl}propanoic acid hydrochloride], the IC50 was found to be 98 nM.
Same read-out and setting: then `COCc1ccc(-n2cc(CCc3ccccc3)c3cc(CCC(=O)O)ccc32)cc1` [Example 216, 3-{1-[4-(methoxymethyl)phenyl]-3-(2-phenylethyl)-1H-indol-5-yl}propanoic acid], with 86 nM; and `O=C(O)CCc1ccc2c(c1)c(CCc1ccccc1)cn2-c1ccc2c(c1)OCCO2` [Example 233, 3-[1-(2,3-dihydro-1,4-benzodioxin-6-yl)-3-(2-phenylethyl)-1H-indol-5-yl]propanoic acid 2-amino-2-(hydroxymethyl)propane-1,3-diol salt (1:1)], with 82 nM; and `O=C(CCc1ccc2c(c1)c(CCc1ccccc1)cn2-c1ccccc1)NO` [Example 21, N-hydroxy-3-[1-phenyl-3-(2-phenylethyl)-1H-indol-5-yl]propanamide], with 15800 nM.
Consider `O=C(O)CCc1ccc2c(c1)c(CCc1ccccc1)cn2-c1ccccc1[N+](=O)[O-]` [Example 149, 3-[1-(2-nitrophenyl)-3-(2-phenylethyl)-1H-indol-5-yl]propanoic acid], for which the IC50 was determined as 278 nM.
On the same count and under the same terms, then `CC(C)(C)C(=O)Nc1cccc(-n2cc(CCc3ccccc3)c3cc(CCC(=O)O)ccc32)c1` [Example 171, 3-[1-{3-[(2,2-dimethylpropanoyl)amino]phenyl}-3-(2-phenylethyl)-1H-indol-5-yl]propanoic acid], with 210 nM; and `O=C(O)CCc1ccc2c(c1)c(CCc1ccccc1)cn2-c1ccc(Cc2ccccn2)cc1` [Example 235, 3-{3-(2-phenylethyl)-1-[4-(pyridin-2-ylmethyl)phenyl]-1H-indol-5-yl}propanoic acid hydrochloride], with 122 nM.
As to `CC(=O)Nc1cccc(-n2cc(CCc3ccccc3)c3cc(CCC(=O)O)ccc32)c1` [Example 169, 3-{1-[3-(acetylamino)phenyl]-3-(2-phenylethyl)-1H-indol-5-yl}propanoic acid], the IC50 is 205 nM.
The same measure, in the same setting: the value for `CCCOc1ccc(-n2cc(CCc3ccccc3)c3cc(CCC(=O)O)ccc32)cc1` [Example 119, 3-[3-(2-phenylethyl)-1-(4-propoxyphenyl)-1H-indol-5-yl]propanoic acid] was 7 nM; that for `CCC(C(=O)c1cn(-c2ccccc2)c2ccc(CCC(=O)O)cc12)c1ccccc1` (centres unmarked) [Example 36, 3-[1-phenyl-3-(2-phenylbutanoyl)-1H-indol-5-yl]propanoic acid 2-amino-2-(hydroxymethyl)propane-1,3-diol salt (1:1)] was 330 nM.
Regarding `CCOc1ccc(-n2cc(CCc3ccccc3)c3cc(CCC=O)ccc32)cc1` [Example 117], the IC50 worked out at 527 nM.
For `O=C(O)CCc1ccc2c(c1)c(CCc1ccccc1)cn2-c1ccc(OCc2ccccc2)nc1` [Example 199, 3-{1-[6-(benzyloxy)pyridin-3-yl]-3-(2-phenylethyl)-1H-indol-5-yl}propanoic acid], the IC50 is 986 nM.
The same measure, in the same setting: then `O=C(O)CCc1ccc2c(c1)c(C(=O)C1(c3ccccc3)CC1)cn2-c1ccccc1` [Example 40, 3-{1-phenyl-3-[(1-phenylcyclopropyl)carbonyl]-1H-indol-5-yl}propanoic acid], with 2300 nM.
Same read-out and setting: then `O=C(O)CCc1ccc2c(c1)c(CCc1ccccc1)cn2-c1ccccn1` [Example 132, 3-[3-(2-phenylethyl)-1-(2-pyridinyl)-1H-indol-5-yl]propanoic acid hydrochloride], with 225 nM; and `COc1ccc(-n2cc(CCc3ccccc3)c3cc(CCC(=O)O)ccc32)cc1` [Example 77, 3-[1-(4-methoxyphenyl)-3-(2-phenylethyl)-1H-indol-5-yl]propanoic acid 2-amino-2-(hydroxymethyl)propane-1,3-diol salt (1:1)], with 26 nM.
Same read-out and setting: then `CC(O)c1ccc(-n2cc(CCc3ccccn3)c3cc(CCC(=O)O)ccc32)cc1` (centres unmarked) [Example 304, 3-{1-[4-(1-hydroxyethyl)phenyl]-3-(2-pyridin-2-ylethyl)-1H-indol-5-yl}propanoic acid hydrochloride], with more than 3000 nM; and `O=C(O)CCc1ccc2c(c1)c(CCc1ccccc1)cn2-c1ccc(S(=O)(=O)N2CCOCC2)cc1` [Example 320, 3-{1-[4-(morpholin-4-ylsulfonyl)phenyl]-3-(2-phenylethyl)-1H-indol-5-yl}propanoic acid], with 258 nM; and `CCOc1ccc(-n2cc(CCc3ccccc3)c3cc(CCC(=O)O)ccc32)cc1` [Example 112, 3-[1-(4-ethoxyphenyl)-3-(2-phenylethyl)-1H-indol-5-yl]propanoic acid 2-amino-2-(hydroxymethyl)propane-1,3-diol salt (1:1)], with 15 nM.
Consider `COc1ccc(-n2cc(CCc3ccccc3)c3cc(CCC(=O)O)ccc32)cc1OC` [Example 211, 3-[1-(3,4-dimethoxyphenyl)-3-(2-phenylethyl)-1H-indol-5-yl]propanoic acid], for which the IC50 turned out to be 790 nM.
The same measure, in the same setting: the value for `O=C(O)CCc1ccc2c(c1)c(CCc1ccccn1)cn2-c1ccccc1` [Example 264, 3-[1-phenyl-3-(2-pyridin-2-ylethyl)-1H-indol-5-yl]propanoic acid] was 338 nM; that for `COCC(=O)Nc1ccc(-n2cc(CCc3ccccc3)c3cc(CCC(=O)O)ccc32)cc1` [Example 197, 3-[1-{4-[(methoxyacetyl)amino]phenyl}-3-(2-phenylethyl)-1H-indol-5-yl]propanoic acid] was 157 nM; that for `COc1ccc(-n2cc(CCc3ccccc3)c3cc(CCC(=O)O)ccc32)cn1` [Example 130, 3-[1-(6-methoxy-3-pyridinyl)-3-(2-phenylethyl)-1H-indol-5-yl]propanoic acid] was 113 nM.
Still for that read-out and setting: the value for `CN(C)c1ccc(-n2cc(CCc3ccccc3)c3cc(CCC(=O)O)ccc32)cc1` [Example 85, 3-{1-[4-(dimethylamino)phenyl]-3-(2-phenylethyl)-1H-indol-5-yl}propanoic acid] was 77 nM; that for `O=C(O)CCc1ccc2c(c1)c(CCc1ccccn1)cn2-c1cc(F)c(OCc2ccccc2)c(F)c1` [Example 297, 3-{1-[4-(benzyloxy)-3,5-difluorophenyl]-3-(2-pyridin-2-ylethyl)-1H-indol-5-yl}propanoic acid] was 442 nM; that for `CC(=O)Nc1ccccc1-n1cc(CCc2ccccc2)c2cc(CCC(=O)O)ccc21` [Example 153, 3-{1-[2-(acetylamino)phenyl]-3-(2-phenylethyl)-1H-indol-5-yl}propanoic acid] was 7960 nM.
Same read-out and setting: then `O=C(O)CCc1ccc2c(c1)c(CCc1ccccn1)cn2-c1ccc(OCc2ccccc2)cc1` [Example 268, 3-{1-[4-(benzyloxy)phenyl]-3-(2-pyridin-2-ylethyl)-1H-indol-5-yl}propanoic acid], with 19 nM.
For `CN(C)C(=O)c1ccc(-n2cc(CCc3ccccc3)c3cc(CCC(=O)O)ccc32)cc1` [Example 310, 3-[1-{4-[(dimethylamino)carbonyl]phenyl}-3-(2-phenylethyl)-1H-indol-5-yl]propanoic acid], the IC50 was determined as 354 nM.
Same read-out and setting: then `O=C(O)CCc1ccc2c(c1)c(CCc1ccccc1)cn2-c1cc(F)c(O)c(F)c1` [Example 289, 3-[1-(3,5-difluoro-4-hydroxyphenyl)-3-(2-phenylethyl)-1H-indol-5-yl]propanoic acid], with 182 nM; and `O=C(O)CCc1ccc2c(c1)c(CCc1ccccc1)cn2-c1cccc(OCc2ccccc2)c1` [Example 155, 3-{1-[3-(benzyloxy)phenyl]-3-(2-phenylethyl)-1H-indol-5-yl}propanoic acid 2-amino-2-(hydroxymethyl)propane-1,3-diol salt (1:1)], with 208 nM; and `COc1ccc(-n2cc(CCc3ccccc3)c3cc(/C=C/C(=O)O)ccc32)cc1` [Example 74, (2E)-3-[1-(4-methoxyphenyl)-3-(2-phenylethyl)-1H-indol-5-yl]-2-propenoic acid], with 157 nM.
